The target in this test is T1, mitochondrial respiratory chain complex I (CI) (Bos taurus, UniProt P03887+P17694+P42026).
T1 construct: gene NDUFS2; whole CI enzyme immunocaptured from purified bovine heart mitochondria
Kind of test: MitoTox Complex I OXPHOS Activity Microplate Assay (immunocaptured enzyme), dose-response. It counts as biochemical.

T1 sequence (P17694 34-463): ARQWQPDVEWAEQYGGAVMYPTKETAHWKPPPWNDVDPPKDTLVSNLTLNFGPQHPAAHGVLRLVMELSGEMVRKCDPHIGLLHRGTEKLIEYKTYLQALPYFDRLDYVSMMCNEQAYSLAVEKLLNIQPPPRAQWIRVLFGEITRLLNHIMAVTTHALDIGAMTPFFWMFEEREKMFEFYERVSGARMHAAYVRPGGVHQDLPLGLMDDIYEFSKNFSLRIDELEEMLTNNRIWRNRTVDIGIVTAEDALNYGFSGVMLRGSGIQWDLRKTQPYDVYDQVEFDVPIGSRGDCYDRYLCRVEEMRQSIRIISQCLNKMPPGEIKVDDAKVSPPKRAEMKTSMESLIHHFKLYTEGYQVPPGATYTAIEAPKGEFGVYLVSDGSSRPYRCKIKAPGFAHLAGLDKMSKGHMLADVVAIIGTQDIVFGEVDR
T1 sequence (P42026 38-216): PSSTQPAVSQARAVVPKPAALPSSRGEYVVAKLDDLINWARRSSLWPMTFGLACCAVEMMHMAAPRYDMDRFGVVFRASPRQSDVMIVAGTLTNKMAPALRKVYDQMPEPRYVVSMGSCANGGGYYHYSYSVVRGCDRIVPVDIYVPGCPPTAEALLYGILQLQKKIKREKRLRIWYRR
T1 sequence (P03887 whole entry): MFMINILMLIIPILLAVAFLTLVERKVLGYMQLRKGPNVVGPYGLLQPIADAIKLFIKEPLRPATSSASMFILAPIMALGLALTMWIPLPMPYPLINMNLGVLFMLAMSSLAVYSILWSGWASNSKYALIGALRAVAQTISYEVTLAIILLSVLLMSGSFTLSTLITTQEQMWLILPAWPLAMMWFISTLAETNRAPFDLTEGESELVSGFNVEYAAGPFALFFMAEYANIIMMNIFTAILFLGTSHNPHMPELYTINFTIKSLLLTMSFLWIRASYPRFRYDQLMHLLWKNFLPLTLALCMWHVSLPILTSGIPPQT

Take `Cc1cc(-c2nc(-c3ccc(OC(F)(F)F)cc3)no2)nn1Cc1ccnc(N2CCN(C3CC3)CC2)c1` [BAY 87-2243]: the IC50 was roughly 0.5 µM.

These data come from publication PMC6404347, “CHCHD4 confers metabolic vulnerabilities to tumour cells through its control of the mitochondrial respiratory chain” (Cancer & Metabolism, 2019).
